Source: US11549142B2, “CETP inhibitors for therapeutic use” (Hoffmann-La Roche Inc., priority 2013, dated 2023)
Several values for one entry are separate records, joined by “and”; a condition that tells them apart may be missing. Equal entries are not always repeated. Entries after “also recorded” stand apart in the source; their conditions may differ.

System: patients recently hospitalized for an Acute Coronary Syndrome (ACS)
Assay: dal-OUTCOMES phase III trial with pharmacogenomic (GWAS) analysis of cardiovascular events by ADCY9 genotype
Format: in vivo, human
Design: key to Predicted response: R: Responsive; PR: Partial Responsive; NR: Non Responsive
Description: The dalcetrapib mortality and morbidity trial (dal-OUTCOMES) was a double-blind, randomized, placebo-controlled, parallel group, multi-centre study in stable CHD patients recently hospitalized for acute coronary syndrome (ACS). The study was conducted to test the hypothesis that CETP inhibition will reduce the risk of recurrent cardiovascular events in patients with recent ACS by raising levels of HDL-C through CETP inhibition. Eligible patients entered a single-blind placebo run-in period of approximately 4 to 6 weeks to allow for patients to stabilize and for completion of planned revascularization procedures. At the end of the run-in period, eligible patients in stable condition were randomized in a 1:1 ratio to 600 mg of dalcetrapib or placebo on top of evidence-based medical care for ACS. Dalcetrapib is an inhibitor of cholesterol-ester transfer protein (CETP). […] The trial was interrupted in May 2012 by the DSMB on grounds of futility.
Dal-OUTCOMES trial (NC20971) was a double blind, randomized, placebo-controlled, parallel group, multi-center, phase III study to assess the safety and efficacy of the CETP inhibitor dalcetrapib in patients recently hospitalized for an Acute Coronary Syndrome (ACS). At time of the interim analysis the study included 15871 randomized patients, distributed over two treatment arms: placebo (7933 patients) and dalcetrapib (600 mg daily; 7938 patients). […] The dal-OUTCOMES study details can be found in G. Schwartz et al., N. Engl. J. Med. 367; 22, 2012.\
Whole genome analysis was performed in GLP-environment at the Beaulieu-Saucier Pharmacogenomics Centre. The Infinium® HumanOmni25Exome-8v1_A BeadChip (Illumina, San Diego, Calif.) including 2,567,845 genomic markers was used and processed according to the manufacturer's specifications. Approximately 200 ng of genomic DNA was whole-genome amplified, fragmented, and hybridized to locus-specific probes bound to the surface of each BeadChip. DNA was genotyped using a fluorescently labelled single base extension assay. BeadChips were scanned and analyzed using the Illumina® iScan Reader. Infinium® process controls were monitored and all results were within manufacturer's specifications. Scanned images were analyzed using Illumina's GenomeStudio® version 2011.1 with the GenTrain 2.0 cluster algorithm, using a No-Call threshold of 0.15, without manual cluster adjustment and using the manufacturer's Illumina® HumanOmni25Exome-8v1_A cluster file. […] Three genotyping files in PLINK format generated by GenomeStudio® were combined and transformed to binary PLINK format.
Genotyping completion rate for samples and SNPs was set to 98%. SNPs with genotyping plate bias (based on the 96 well plates used to dilute DNA samples) were flagged but not removed as the effect of genetic ancestry could not be excluded. Pairwise IBD was used to conduct close familial relationship checks. We flagged and removed all but one pair-member of related pairs and sample duplicates (IBS2*ratio>0.80) based on a selection of uncorrelated SNPs (r^2<0.1). The pairwise IBS matrix was used as a distance metric to identify cryptic relatedness among samples and sample outliers by multi-dimensional scaling (MDS). The first two MDS components of each subject were plotted including the genotypes of HapMap CEU, JPT-CHB, and YRI data (keeping only founder individuals). Outliers from the main Caucasian cluster were flagged and removed by k-nearest neighbour. (Supplementary FIG. 1) The scree plot and the cumulative explained variance were computed using the smartpca program of the EIGENSOFT suite (version 3.0). Options used were a numoutlieriter (maximum number of outlier removal iterations) of 0 (turned off) and altnormstyle (normalization formula) equal to NO. ^4 (Supplementary FIG. 2)
A statistical analysis plan was developed at the Beaulieu-Saucier Pharmacogenomics Centre and the final version approved prior to genotyping completion in October 2012. […]

With CCC(CC)CC1(C(=O)Nc2ccccc2SC(=O)C(C)C)CCCCC1 [dalcetrapib, thioisobutyric acid S-(2-{[1-(2-ethyl-butyl)-cyclohexanecarbonyl]-amino}-phenyl) ester] the “event rate in the primary efficacy endpoint (cardiovascular events), dalcetrapib arm compared to the placebo arm” value (all patients, 600 mg daily) was “lack of efficacy relative to statins alone; also recorded: did not show a significant reduction in cardiovascular events; also recorded: no evidence of reduction of the event rate”, the HDL-c (patients on treatment, dal-OUTCOMES) was “marked increase” and the “HR for events, additive genetic effect of one allele” value (rs1967309, dal-Outcomes treatment arm, Cox proportional hazards) was 0.65 (95% CI 0.55, 0.76). The “HR (95% CI) for time to events, dalcetrapib treatment arm only, genotype comparison” value (shortened to “HR (95% CI) for time to events”) (rs1967309 AA vs GG) was 0.40 (95% CI 0.28, 0.57) and 0.4 (0.28, 0.57), the “HR (95% CI) for time to events” value (rs1967309 GA vs GG) was 0.68 (95% CI 0.55, 0.84) and 0.68 (0.56, 0.84) and the Predicted response (rs1967309 genotype AA) was “R”. For the same compound, the “HR for time to events, dalcetrapib treatment arm versus placebo arm” value (rs1967309 genotype GA) was 0.94, the Predicted response (rs1967309 genotype GA) was “PR” and the “HR for time to events, dalcetrapib treatment arm versus placebo arm” value (rs1967309 genotype GG) was 1.27. The Predicted response (rs1967309 genotype GG) was “NR”, the “HR (95% CI) for time to events” value (rs2239310 AG vs AA) was 0.71 (0.58,0.87) and the “HR (95% CI) for time to events” value (rs2239310 GG vs AA) was 0.43 (0.29, 0.63). For the same compound, the “HR for time to events, dalcetrapib treatment arm versus placebo arm” value (rs2239310 genotype AA) was 1.16, the Predicted response (rs2239310 genotype AA) was “NR” and the “HR for time to events, dalcetrapib treatment arm versus placebo arm” value (rs2239310 genotype AG) was 0.96. For the same compound, the Predicted response (rs2239310 genotype AG) was “PR”, the “HR for time to events, dalcetrapib treatment arm versus placebo arm” value (rs2239310 genotype GG) was 0.6 and the Predicted response (rs2239310 genotype GG) was “R”. For the same compound, the “HR (95% CI) for time to events” value (rs2283497 AA vs CC) was 0.53 (0.37, 0.76), the “HR (95% CI) for time to events” value (rs2283497 CA vs CC) was 0.83 (0.67, 1.02) and the “HR for time to events, dalcetrapib treatment arm versus placebo arm” value (rs2283497 genotype AA) was 0.57. The Predicted response (rs2283497 genotype AA) was “R”, the “HR for time to events, dalcetrapib treatment arm versus placebo arm” value (rs2283497 genotype CA) was 0.99 and the Predicted response (rs2283497 genotype CA) was “PR”. For the same compound, the “HR for time to events, dalcetrapib treatment arm versus placebo arm” value (rs2283497 genotype CC) was 1.23, the Predicted response (rs2283497 genotype CC) was “NR” and the “HR (95% CI) for time to events” value (rs2531967 AA vs GG) was 0.5 (0.29, 0.86). The “HR (95% CI) for time to events” value (rs2531967 GA vs GG) was 0.75 (0.61, 0.93), the “HR for time to events, dalcetrapib treatment arm versus placebo arm” value (rs2531967 genotype AA) was 0.67 and the Predicted response (rs2531967 genotype AA) was “R”. For the same compound, the “HR for time to events, dalcetrapib treatment arm versus placebo arm” value (rs2531967 genotype GA) was 0.86, the Predicted response (rs2531967 genotype GA) was “PR” and the “HR for time to events, dalcetrapib treatment arm versus placebo arm” value (rs2531967 genotype GG) was 1.12. The Predicted response (rs2531967 genotype GG) was “NR”, the “HR (95% CI) for time to events” value (rs3730119 AA vs GG) was 0.49 (0.22, 1.1) and the “HR (95% CI) for time to events” value (rs3730119 GA vs GG) was 0.78 (0.62, 0.99). The “HR for time to events, dalcetrapib treatment arm versus placebo arm” value (rs3730119 genotype AA) was 0.48, the Predicted response (rs3730119 genotype AA) was “R” and the “HR for time to events, dalcetrapib treatment arm versus placebo arm” value (rs3730119 genotype GA) was 0.86. For the same compound, the Predicted response (rs3730119 genotype GA) was “PR”, the “HR for time to events, dalcetrapib treatment arm versus placebo arm” value (rs3730119 genotype GG) was 1.08 and the Predicted response (rs3730119 genotype GG) was “NR”. For the same compound, the “HR (95% CI) for time to events” value (rs4786454 AA vs GG) was 0.37 (0.15, 0.9), the “HR (95% CI) for time to events” value (rs4786454 GA vs GG) was 0.69 (0.54, 0.87) and the “HR for time to events, dalcetrapib treatment arm versus placebo arm” value (rs4786454 genotype AA) was 0.52. For the same compound, the Predicted response (rs4786454 genotype AA) was “R”, the “HR for time to events, dalcetrapib treatment arm versus placebo arm” value (rs4786454 genotype GA) was 0.89 and the Predicted response (rs4786454 genotype GA) was “PR”. The “HR for time to events, dalcetrapib treatment arm versus placebo arm” value (rs4786454 genotype GG) was 1.06, the Predicted response (rs4786454 genotype GG) was “NR” and the “HR (95% CI) for time to events” value (rs8049452 AA vs GG) was 1.98 (1.51, 2.61). For the same compound, the “HR (95% CI) for time to events” value (rs8049452 GA vs GG) was 1.26 (0.99, 1.6), the “HR for time to events, dalcetrapib treatment arm versus placebo arm” value (rs8049452 genotype AA) was 1.55 and the Predicted response (rs8049452 genotype AA) was “NR”. For the same compound, the “HR for time to events, dalcetrapib treatment arm versus placebo arm” value (rs8049452 genotype GA) was 0.97, the Predicted response (rs8049452 genotype GA) was “PR” and the “HR for time to events, dalcetrapib treatment arm versus placebo arm” value (rs8049452 genotype GG) was 0.78. For the same compound, the Predicted response (rs8049452 genotype GG) was “R”, the “HR (95% CI) for time to events” value (rs8061182 AG vs AA) was 1.23 (0.98, 1.56) and the “HR (95% CI) for time to events” value (rs8061182 GG vs AA) was 1.81 (1.37, 2.39). The “HR for time to events, dalcetrapib treatment arm versus placebo arm” value (rs8061182 genotype AA) was 0.79.
